Measured values taken from patent US20260356860A1, “2-SUBSTITUTED 3,4A,5,7,8,8A-HEXAHYDRO-4H-THIOPYRANO[4,3-DJPYRIMIDIN-4-ONES FOR WOUND TREATMENT” (priority 2022, published 2026).
Where “and” joins values, the source holds several entries; their conditions need not be identical. Equal values may be shown once.

What was measured:
[1] = tested on: HEK293 SuperTOPFlash reporter cells, Wnt promoter; assay: Wnt inhibition in HEK293 SuperTOPFlash reporter cells, DMSO vs aqueous GO-HA (FIGS. 1-3); type: cell-based
Method: In order to determine the effect of the compounds of Formula (I) on Wnt inhibition, an invitro assay using HEK293 SuperTOPFlash reporter cells, with the Wnt promoter driving a luciferase reporter gene, were utilized. 40,000 HEK293 SuperTOPFlash reporter cells were seeded, per well, in a 48 well plate for 24 hours, prior to administration of serial dilutions of the compounds of Formula (I) to individual wells. Serial dilutions ranging from […] to 1 nM of compounds of Formula (I) were added with or without 50 ng/mL Wnt3α (Time Biosciences) and allowed to incubate with the reporter cells for 18 hours. Reporter cells with no treatment were used as negative control.

[2] = tested on: HEK293 SuperTOPFlash reporter cells, Wnt promoter; assay: HEK CELL Wnt Assay (luciferase reporter); type: cell-based; conditions: serial dilutions, with or without 50 ng/mL Wnt3a; 18 h
Outline: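 Reporter cells were seeded 24 h before dosing with serial dilutions ([…] to 1 nM), with or without 50 ng/mL Wnt3a, and incubated 18 h. Untreated cells served as negative control, with luciferase as read-out.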

[3] = tested on: bacteria; assay: Bacteriostasis: growth inhibition over the panel of bacteria; type: cell-based; conditions: 72 h
Method: In order to assess the log reduction capabilities of compounds of Formula (1), testing was performed on organisms that are found in acute and chronic wounds. Triplicate tubes were prepared for each bacteria using 50 μL of inoculum (about 1×10^6 CFU/mL) which was added to 450 μL of compound solution (compound of Formula (I)) (or 100 μL of inoculum in 900 μL of compound solution), resulting in a final inoculum of about 1×10^5 CFU/mL, as shown in Table 4.
Tubes were mixed with a vortex and then incubated in a shaking incubator at 175 RPM and 35° C. to 37° C.
For Compounds 1, 7, 8, 10, and 18 in Tables 6, 7-A, 7-B, 8, 9, 10-A, 10-B, and 11: The compound solutions were prepared with compound (30 mg), polysorbate 20 (1.6 mL), butylene glycol (1.6 mL), phosphatidyl choline (0.66 g), ethanol (1.6 mL), hydroxypropyl cellulose (0.26 g), and ultra pure water (24.9 mL).
Testing was performed at two time points: 18 to 24 hours, and […].

[4] = tested on: closed excisional wounds; assay: Closed excisional wound healing study (cosmesis); type: in vivo, Yucatan Miniature Swine; conditions: of 8 wounds
Method: The test composition in the closed excisional wound and burn studies for compounds without GO-HA (no GO-HA added) was a mixture with an overall concentration of 0.20 to 0.25 mg/mL of the respective compound in serum formulation as follows: compound (4 mg), butylene glycol (0.80 mL), polysorbate 20 (0.40 mL), ultra pure water (18 mL), and hydroxypropyl cellulose (0.12 g).
The test composition in the closed excisional wound and burn studies for compounds with GO-HA (Compound+GO-HA) was a mixture with an overall concentration of 1.0 mg/mL of the respective compound and 0.5 mg/mL of GO-HA in serum formulation as follows: compound (18 mg), PEG 400 (0.8 mL), GO-HA (9 mg), ultra pure water (18 mL), and hydroxypropyl cellulose (0.12 g).
The frequency of wound creation was once on dosing phase day 1. The frequency of dose administration was once on dosing phase days 1, 3, 5, 7, 9, 11, 13, 15, 17, 19, and 21. Each animal had twelve 5 cm×0.5 cm full thickness fusiform(spindle shaped) wound sites, spaced at least 3 cm apart to the appropriate depth and in a staggered pattern to reduce central cross-sectional wound tension.
Once […] was obtained, each wound was sutured closed using non-absorbable suture, the simple interrupted closure technique is shown in FIG. 13. Each wound had 5 simple interrupted sutures with a 0.5 to 1 cm interval between sutures.
Compounds of Formula (I) and controls were applied directly to the wound site in a generous layer evenly over the sutured wound using a sterile applicator as needed. After application, each wound site was covered with suitable sterile dressing materials.
Dressings were changed every dosing phase day at day 3, 5, 7, 9, 11, 13, 15, 17, 19, and 21, and sutures were removed on dosing phase day 15. After dose administration on each dosing day, the wounds were covered with dressings as described above.
All animals were scheduled to be terminated on dosing phase day 22. At termination, the entire wound site (dose site) was collected separately for each site and included at least 0.5 cm margin skin and a depth below the wound bed. […]

[5] = tested on: new porcine skin; assay: Elasticity of healed wound; type: in vivo; conditions: day 21; for Elasticity, Mean / Elasticity, individual values: topical
Method: (§1) Additional tests were performed including elasticity (Table 12); max force (Table 13); tensile strength (strain) (Table 14); energy peak (Table 15); rete-ridge formation; and collagen organization (plane polarized light) (FIG. 24) of the healed wound sites, described as follows.
A is saline (control), B is serum formulation (vehicle), C is GO-HA (vehicle), D is Compound 1; E is Compound 1+GO-HA; F is Compound 8; G is Compound 8+GO-HA; H is Compound 10; and J is Compound 10+GO-HA.
Elasticity (N/mm) is the ability of a material to return to its original shape after stress has been removed. All compounds of Formula (I) tested with or without GO-HA ranged from 33% to 99% improvement in elasticity compared to the saline control.

[6] = tested on: new porcine skin; assay: Max force of healed wound; type: in vivo; conditions: day 21; for Max Force / Max Force, Mean: topical
Method: as §1
A is saline (control), B is serum formulation control (vehicle), C is GO-HA (vehicle), D is Compound 1; E is Compound 1+GO-HA; F is Compound 8; G is Compound 8+GO-HA; H is Compound 10; and J is Compound 10+GO-HA. Descriptions for saline control, serum formulation control, and GO-HA are as provided above for FIG. 19.
Max Force (N) is the average force required to break/rupture a material. All compounds of Formula (I) tested with or without GO-HA ranged from 18% to 68% improvement in max force compared to the saline control.

Structure (SMILES) | IC50 [1] [nM] | IC50 [2] [nM] | number of bacteria with inhibited growth [3] | wounds with improved cosmesis / visible appearance than the control [4] | Elasticity, Mean [5] [N/mm] | Elasticity, individual values [5] | Max Force ([6]; individual value 1) [N] | Max Force ([6]; individual value 2) [N] | Max Force ([6]; individual value 3) [N] | Max Force ([6]; individual value 4) [N] | Max Force, Mean [6] [N] | number of bacteria with inhibited growth ([3]; test 1) | number of bacteria with inhibited growth ([3]; test 2) | improvement in elasticity compared to the saline control [5] [%] | improvement in max force compared to the saline control [6] [%] | Max Force ([6]; individual value 5) [N]
O=c1[nH]c(-c2ccc(-c3ccc(Br)nc3)cc2)nc2c1CSCC2 [Compound 7, 2-(4-(6-bromopyridin-3-yl)phenyl)-3,5,7,8-tetrahydro-4H-thiopyrano [4,3-d]pyrimidin-4-one] | 5 to 10 | 17 | 4 of 7 |  |  |  |  |  |  |  |  |  |  |  |  | 
O=c1[nH]c(-c2ccc(B(O)O)cc2)nc2c1CSCC2 [Compound 1, (4-(4-oxo-3,5,7,8-tetrahydro-4H-thiopyrano[4,3-d]pyrimidin-2-yl)phenyl)boronic acid] | 2000 | 2000 |  | 7 of 8 | 37.628 | 39.593 N/mm and 27.299 N/mm and 33.002 N/mm and 50.617 N/mm | 290.184 | 278.868 | 250.554 | 273.195 | 273.200 | 6 of 7 | 7 of 7 |  |  | 
O=c1[nH]c(-c2ccc(-c3ccc(B(O)O)cc3)cc2)nc2c1CSCC2 [Compound 10, (4′-(4-oxo-3,5,7,8-tetrahydro-4H-thiopyrano[4,3-d]pyrimidin-2-yl)-[1,1′-biphenyl]-4-yl)boronic acid] |  | 5 |  | 3 of 8 | 53.682 | 43.004 N/mm and 52.568 N/mm and 74.191 N/mm and 44.962 N/mm | 406.879 | 474.825 | 344.860 | 335.864 | 390.607 | 7 of 7 | 7 of 7 | 91 | 68 | 
CC(C)(OCCO)c1ccc(-c2nc3c(c(=O)[nH]2)CSCC3)cc1 [Compound 8, 2-(4-(2-(2-hydroxyethoxy)propan-2-yl)phenyl)-3,5,7,8-tetrahydro-4H-thiopyrano[4,3-d]pyrimidin-4-one] | 5 to 10 | 4.4 | 5 of 7 | 2 of 8 | 40.080 | 47.748 N/mm and 22.23 N/mm and 55.607 N/mm and 46.485 N/mm and 28.331 N/mm | 404.094 | 488.094 | 273.110 | 330.413 | 333.196 |  |  |  |  | 169.61
COC(=O)NCCOC(C)(C)c1ccc(-c2nc3c(c(=O)[nH]2)CSCC3)cc1 [Compound 18, methyl (2-((2-(4-(4-oxo-3,5,7,8-tetrahydro-4H-thiopyrano[4,3-d]pyrimidin-2-yl)phenyl)propan-2-yl)oxy)ethyl)carbamate] |  | 6 |  |  |  |  |  |  |  |  |  | 14 of 15 |  |  |  | 
